According to PMC8953583, “The Longitudinal Dividing Bacterium Candidatus Thiosymbion Oneisti Has a Natural Temperature-Sensitive FtsZ Protein with Low GTPase Activity” (International Journal of Molecular Sciences, 2022):
Positions count from the first letter of the chain named.

B1: FtsZ^TO (Candidatus Thiosymbion oneisti) (protein)
chain: MFELVDTNGQDAVIKVIGVGGGGGNAVNQMVESSIEGVDFICANTDSQALKSSNVKTILQLGADITKGLGAGADPKVGKEAALEDKERIHDALEGADMVFITAGMGGGTGTGAAPVVAQVARELGILTVAVVTKPFAFEGAKRMKVAVEGISELASHVDSLITIPNEKLLAVLGKEMSLLNSFKAANDVLLNATQGIAELITRPGLINVDFADVKTVMAEMGQAMMGTGIASGEQRAREAAEAAINSPLLEDIDLAGAKGILVNITAGMSLSIGEFDEVGNTVRDFADDDAIVVVGTVIDPDLSEELRVTVVATGLGEGRRAQLSKPAMGESPIHLVPRGGTGSVTPDYRDMERPAVYRKGYQGVAAAAVAQAHPDAVEETDLDYLDIPAFLRHQAD
notes: untagged, expressed from pJW17 (pET11b) in E. coli BL21(DE3) pLysS; anion-exchange purified

Legend:
FtsZ^EC = biological target: T1, FtsZ^EC (Escherichia coli, UniProt P0A9A6); assay: GTPase assay (phosphate release); assay type: biochemical; details: comparison with FtsZ^TO; conditions in supplement
T1 construct: purified FtsZ; purification not described in main text
T1 sequence (P0A9A6 1-383): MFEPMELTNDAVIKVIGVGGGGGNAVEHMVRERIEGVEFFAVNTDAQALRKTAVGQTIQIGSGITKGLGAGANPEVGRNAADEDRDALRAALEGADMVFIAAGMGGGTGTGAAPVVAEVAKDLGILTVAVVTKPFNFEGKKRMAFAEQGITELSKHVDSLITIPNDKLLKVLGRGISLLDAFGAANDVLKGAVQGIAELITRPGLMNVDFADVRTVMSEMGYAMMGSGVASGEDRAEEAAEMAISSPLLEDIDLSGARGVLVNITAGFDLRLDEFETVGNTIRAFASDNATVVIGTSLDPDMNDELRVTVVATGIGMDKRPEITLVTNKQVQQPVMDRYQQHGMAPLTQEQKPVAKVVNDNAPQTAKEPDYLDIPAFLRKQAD

FtsZ^TO = biological target: T2, FtsZ^TO (Candidatus Thiosymbion oneisti, UniProt I3VI34, I207M); assay: Malachite green phosphate release GTPase assay; assay type: biochemical; details: 1 mM GTP, HEPES buffer pH 7.5 or MES buffer pH 6.5, 50 mM KCl, 5 mM MgCl2, 28 °C; T7 loop mutant
T2 construct: untagged, expressed from pJW17 (pET11b) in E. coli BL21(DE3) pLysS; anion-exchange purified
T2 sequence (I3VI34 1-397 I207M): B1 chain with I207M

[1] = substrate: Nc1nc2c(ncn2[C@@H]2O[C@H](COP(=O)(O)OP(=O)(O)OP(=O)(O)O)[C@@H](O)[C@H]2O)c(=O)[nH]1; assay: Malachite green phosphate release GTPase assay, Michaelis-Menten fit; assay type: biochemical, Candidatus Thiosymbion oneisti; details: MES buffer pH 6.5, 50 mM KCl, 5 mM MgCl2, 28 °C, 5 μM FtsZ
From the text: Malachite green phosphate release GTPase assay, Michaelis-Menten fit on FtsZ^TO

Row | Molecule | GTPase assay (phosphate release) (FtsZ^EC) | Malachite green phosphate release GTPase assay (FtsZ^TO) | Km [1] [µM] | kcat [1] [s⁻¹]
1 | Nc1nc2c(ncn2[C@@H]2O[C@H](COP(=O)(O)OP(=O)(O)OP(=O)(O)O)[C@@H](O)[C@H]2O)c(=O)[nH]1 [GTP] | FtsZ^TO showed a low GTPase activity compared to FtsZ^EC (Figure S4a) | Mutations I207M of the T7 loop and I273E of the H10 helix mutations reduced the GTPase |  | 
2 | B1 |  |  | 550 ± 110 | 0.00817 ± 0.000833
